Test results taken from ChEMBL document CHEMBL5338705, “Discovery of 1,3,4-oxadiazole derivatives containing a bisamide moiety as a novel class of potential cardioprotective agents” (Eur J Med Chem, 2022).
The source made the active and inactive calls. The rule behind the calls is not given here.

What was measured:
[1] = system: H9c2; test: Cytoprotective activity against H2O2-induced oxidative damage in rat H9c2 cells assessed as fold reduction in cell viability at 20 uM preincubated for 24 hrs followed by H2O2 treatment for another 1.5 hrs by MTT assay; type: functional; conditions: time 25.5 hrs
[2] = system: H9c2; test: Cytoprotective activity against H2O2-induced oxidative damage in rat H9c2 cells assessed as cell viability at 20 uM preincubated for 24 hrs followed by H2O2 treatment for another 1.5 hrs by MTT assay (reference value: 32.52 to 44.40%); type: functional; conditions: time 25.5 hrs, read-out: Activity
[3] = system: H9c2; test: Antioxidant activity in H2O2-induced oxidative stress in rat H9c2 cells assessed as increase in expression of NQO1 level at upto 80 uM measured after 1.5 hrs by Western blotting analysis; type: functional, cell-based
[4] = system: H9c2; test: Downregulation of H2O2 induced BNP level in rat H9c2 cells measured after 1.5 hrs by qRT-PCR analysis; type: functional, cell-based; conditions: dose <= 80.0 µM
[5] = system: H9c2; test: Anti-apoptotic activity in H202 induced rat H9c2 cells assessed as increase in caspase 9 level at 20 to 80 uM measured after 1.5 hrs by Western blot analysis; type: functional, cell-based; conditions: dose 20-80 µM
[6] = system: H9c2; test: Cytoprotective activity against H2O2-induced oxidative damage in rat H9c2 cells assessed as reduction in cell viability at 100 uM incubated for 24 hrs followed by low concentration of H2O2 treatment and measured after 24 hrs by MTT assay relative to control; type: functional; conditions: time 48 hrs
[7] = system: H9c2; test: Anti-apoptotic activity in H202 induced rat H9c2 cells assessed as increase in caspase 3 level at 20 to 80 uM measured after 1.5 hrs by Western blot analysis; type: functional, cell-based; conditions: dose 20-80 µM
[8] = system: H9c2; test: Cytotoxicity against rat H9c2 cells at 10 to 100 uM measured after 48 to 72 hrs by MTT assay; type: toxicity, cell-based; conditions: h9c2, 100 µM, dose lower 10 µM, time lower 48 hrs, dose upper 100 µM, time upper 72 hrs
[9] = system: H9c2; test: Cytoprotective activity against H2O2-induced oxidative damage in rat H9c2 cells assessed as cell viability preincubated for 24 hrs followed by H2O2 treatment for another 1.5 hrs by MTT assay; type: functional, cell-based; conditions: dose 0-80 µM, time 25.5 hrs
[10] = system: H9c2; test: Protection against H2O2-induced cell damage in rat H9c2 cells assessed as recovery of cell death at 100 uM; type: functional, cell-based
[11] = system: H9c2; test: Anti-apoptotic activity in H202 induced rat H9c2 cells assessed as decrease in Bcl2 level at 20 to 80 uM measured after 1.5 hrs by Western blot analysis; type: functional, cell-based; conditions: dose 20-80 µM
[12] = system: H9c2; test: Protection against H2O2-induced cell damage in rat H9c2 cells assessed as recovery of cell shrinkage at 100 uM; type: functional, cell-based
[13] = system: H9c2; test: Antioxidant activity in H2O2-induced oxidative stress in rat H9c2 cells assessed as increase in expression of Nrf2 level at upto 80 uM measured after 1.5 hrs by Western blotting analysis; type: functional, cell-based
[14] = system: H9c2; test: Anti-apoptotic activity in H202 induced rat H9c2 cells assessed as increase in Bax level at 20 to 80 uM measured after 1.5 hrs by Western blot analysis; type: functional, cell-based; conditions: dose 20-80 µM
[15] = system: H9c2; test: Downregulation of H2O2 induced ANP level in rat H9c2 cells measured after 1.5 hrs by qRT-PCR analysis; type: functional, cell-based; conditions: dose <= 80.0 µM
[16] = system: H9c2; test: Anti-apoptotic activity in H202 induced rat H9c2 cells assessed as increase in Bax level at 80 uM measured after 1.5 hrs by Western blot analysis; type: functional, cell-based
[17] = system: H9c2; test: Downregulation of H2O2 induced BNP level in rat H9c2 cells at 80 uM measured after 1.5 hrs by qRT-PCR analysis; type: functional, cell-based
[18] = system: H9c2; test: Downregulation of H2O2 induced ANP level in rat H9c2 cells at 80 uM measured after 1.5 hrs by qRT-PCR analysis; type: functional, cell-based
[19] = system: H9c2; test: Anti-apoptotic activity in H202 induced rat H9c2 cells assessed as increase in caspase 9 level at 80 uM measured after 1.5 hrs by Western blot analysis; type: functional, cell-based
[20] = system: H9c2; test: Antioxidant activity in H2O2-induced oxidative stress in rat H9c2 cells assessed as increase in expression of NQO1 level at 80 uM measured after 1.5 hrs by Western blotting analysis; type: functional, cell-based
[21] = system: H9c2; test: Antioxidant activity in H2O2-induced oxidative stress in rat H9c2 cells assessed as increase in expression of Nrf2 level at 80 uM measured after 1.5 hrs by Western blotting analysis; type: functional, cell-based
[22] = system: H9c2; test: Cytoprotective activity against H2O2-induced oxidative damage in rat H9c2 cells assessed as cell viability at 80 uM preincubated for 24 hrs followed by H2O2 treatment for another 1.5 hrs by MTT assay; type: functional, cell-based; conditions: time 25.5 hrs
[23] = system: H9c2; test: Anti-apoptotic activity in H202 induced rat H9c2 cells assessed as decrease in Bcl2 level at 80 uM measured after 1.5 hrs by Western blot analysis; type: functional, cell-based
[24] = system: H9c2; test: Anti-apoptotic activity in H202 induced rat H9c2 cells assessed as increase in caspase 3 level at 80 uM measured after 1.5 hrs by Western blot analysis; type: functional, cell-based

| SMILES | fold change (FC) [1] | viability at 20 µM [2] | also measured |
| --- | --- | --- | --- |
| COc1ccc(NC(=O)CSc2nnc(-c3ccccc3)o2)cc1 | 1.46 | 52.6% | – |
| Cc1ccccc1-c1nnc(SCC(=O)NC(=O)Nc2ccccn2)o1 | 1.5 | 66.5% | – |
| O=C(CSc1nnc(-c2ccccn2)o1)NC(=O)Nc1ccccn1 | 1.22 | 54% | – |
| O=C(CSc1nnc(-c2ccccc2)o1)NC(=O)Nc1ccccn1 | 1.79 | 72.5% | – |
| Cc1ccccc1-c1nnc(SCC(=O)NC(=O)Nc2ccccc2)o1 | 1.34 | 56% | – |
| O=C(CSc1nnc(-c2ccc(O)cc2)o1)Nc1ccccn1 | 1.54 | 55.3% | – |
| COc1ccc(NC(=O)NC(=O)CSc2nnc(-c3ccccc3)o2)cc1 | 2.69 | 88.4% | Activity [3]: Active; Activity [4]: Dose-Dependent Effect; Activity [5]: Active; Activity [6]: 48%; Activity [7]: Active; Activity [8]: Non-Toxic; Activity [9]: Dose-Dependent Effect; Activity [10]: Active; Activity [11]: Active; Activity [12]: Active; Activity [13]: Active; Activity [14]: Active; Activity [15]: Dose-Dependent Effect |
| COc1ccccc1NC(=O)NC(=O)CSc1nnc(-c2ccccc2)o1 | 1.43 | 47% | – |
| COCCCNC(=O)NC(=O)CSc1nnc(-c2ccc(O)cc2)o1 | 1.76 | 69.5% | – |
| O=C(CSC(=S)N1CCNCC1)NC(=O)Nc1ccccc1 | 1.03 | 41.1% | – |
| O=C(CSc1nnc(-c2cccc(Cl)c2)o1)NC(=O)Nc1ccccc1 | 1.01 | 42.5% | – |
| O=C(CSc1nnc(-c2ccc(O)cc2)o1)NC(=O)Nc1ccccc1 | 1.71 | 71.7% | – |
| O=C(CSc1nnc(-c2ccccc2)o1)Nc1ccccc1 | 1.09 | 46.6% | – |
| Cc1ccc(-c2nnc(SCC(=O)NC(=O)Nc3ccccc3)o2)cc1 | 1.38 | 57.7% | – |
| COc1ccc(NC(=O)NC(=O)Cn2cc(CSc3nnc(-c4ccccc4)o3)nn2)cc1 | 0.51 | 18.4% | – |
| O=C(CSc1nnc(-c2ccc(Cl)cc2)o1)NC(=O)Nc1ccccn1 | 1.24 | 54.9% | – |
| COc1ccc(NC(=O)NC(=O)CSc2nnc(-c3ccccc3)[nH]2)cc1 | 1.69 | 64.4% | – |
| Cc1cccc(-c2nnc(SCC(=O)NC(=O)Nc3ccccn3)o2)c1 | 1.21 | 53.5% | – |
| O=C(Cn1cc(CSc2nnc(-c3ccc(O)cc3)o2)nn1)NC(=O)Nc1ccccn1 | 0.52 | 18.7% | – |
| O=C(CSc1nnc(-c2ccc(Cl)cc2)o1)NC(=O)Nc1ccccc1 | 1.23 | 51.5% | – |
| Cc1cccc(-c2nnc(SCC(=O)NC(=O)Nc3ccccc3)o2)c1 | 1.11 | 46.7% | – |
| O=C(CSc1nnc(-c2ccc(O)cc2)o1)NC(=O)Nc1ncccn1 | 1.49 | 59.1% | – |
| Cc1ccc(NC(=O)NC(=O)CSc2nnc(-c3ccccc3)o2)cc1 | 1.67 | 54.8% | – |
| COc1cc(NC(=O)NC(=O)CSc2nnc(-c3ccccc3)o2)cc(OC)c1OC | 1.3 | 43% | – |
| COc1ccc(NC(=O)CSc2nnc(-c3ccc(O)cc3)o2)cc1 | 1 | 42.9% | – |

| SMILES | fold change (FC) [1] | viability at 20 µM [2] | also measured |
| --- | --- | --- | --- |
| O=C(CSc1nnc(-c2ccccc2)o1)NC(=O)Nc1ccccc1 | 1.32 | 52.9% | – |
| O=C(CSc1nnc(-c2ccc(O)cc2)o1)NC(=O)Nc1nccs1 | 0.93 | 36.8% | – |
| COc1cccc(NC(=O)NC(=O)CSc2nnc(-c3ccccc3)o2)c1 | 0.69 | 22.6% | Activity [16]: inactive; Activity [17]: inactive; Activity [18]: inactive; Activity [19]: inactive; Activity [20]: inactive; Activity [10]: inactive; Activity [21]: inactive; Activity [22]: inactive; Activity [12]: inactive; Activity [23]: inactive; Activity [24]: inactive |
| O=C(CSc1nnc(-c2ccccc2O)o1)NC(=O)Nc1ccccc1 | 1.45 | 60.7% | – |
| O=C(CSc1nnc(-c2ccc(O)cc2)o1)NC(=O)Nc1ccccn1 | 1.92 | 85.2% | – |
| O=C(CSc1nnc(-c2ccccc2)o1)NC(=O)Nc1ccccc1Cl | 1.05 | 34.5% | – |
| O=C(CSc1nnc(-c2cccc(Cl)c2)o1)NC(=O)Nc1ccccn1 | 1.09 | 48.4% | – |
| O=C(CSc1nnc(-c2ccccc2)o1)NC(=O)Nc1cccc(Cl)c1 | 1.03 | 34% | – |
| Cc1ccc(-c2nnc(SCC(=O)NC(=O)Nc3ccccn3)o2)cc1 | 1.6 | 70.9% | – |
| O=C(CSc1nnc(-c2ccc(O)cc2)o1)NC(=O)NN1CCCCC1 | 0.74 | 29.2% | – |
| O=C(CSc1nnc(-c2cccnc2)o1)NC(=O)Nc1ccccn1 | 0.91 | 40.5% | – |
| O=C(CSc1nnc(-c2ccccn2)o1)NC(=O)Nc1ccccc1 | 0.85 | 35.5% | – |
| COc1ccc(NC(=O)NC(=O)CSc2nnc(-c3ccc(O)cc3)o2)cc1 | 1.68 | 60.5% | – |
| O=C(CSc1nnc(-c2ccncc2)o1)NC(=O)Nc1ccccn1 | 1.02 | 45.3% | – |
| O=C(CSc1nnc(-c2ccccc2Cl)o1)NC(=O)Nc1ccccc1 | 0.98 | 40.9% | – |
| O=C(CSc1nnc(-c2cccnc2)o1)NC(=O)Nc1ccccc1 | 0.93 | 39.2% | – |
| O=C(CSc1nnc(-c2ccncc2)o1)NC(=O)Nc1ccccc1 | 1.16 | 48.5% | – |
| O=C(CSc1nnc(-c2ccccc2O)o1)NC(=O)Nc1ccccn1 | 1.48 | 65.7% | – |
| CC(C)c1ccc(NC(=O)NC(=O)CSc2nnc(-c3ccccc3)o2)cc1 | 1.18 | 38.9% | – |
| O=C(CSc1nnc(-c2ccccc2)o1)NC(=O)Nc1ccc(Cl)cc1 | 1.14 | 37.6% | – |
| O=C(CSc1nnc(-c2ccc(O)cc2)o1)NC(=O)Nc1cccnc1 | 1.64 | 64.8% | – |
| O=C(CSc1nnc(-c2ccc(O)cc2)o1)NC(=O)NN1CCOCC1 | 1.12 | 44.2% | – |
| O=C(CSc1nnc(-c2ccccc2)o1)Nc1ccccn1 | 0.97 | 41.4% | – |
| O=C(CSc1nnc(-c2ccccc2Cl)o1)NC(=O)Nc1ccccn1 | 0.96 | 42.6% | – |
